The assay concerns the target T1, Dual specificity protein phosphatase 6 (Rattus norvegicus, UniProt Q64346).
T1 sequence (Q64346 whole entry): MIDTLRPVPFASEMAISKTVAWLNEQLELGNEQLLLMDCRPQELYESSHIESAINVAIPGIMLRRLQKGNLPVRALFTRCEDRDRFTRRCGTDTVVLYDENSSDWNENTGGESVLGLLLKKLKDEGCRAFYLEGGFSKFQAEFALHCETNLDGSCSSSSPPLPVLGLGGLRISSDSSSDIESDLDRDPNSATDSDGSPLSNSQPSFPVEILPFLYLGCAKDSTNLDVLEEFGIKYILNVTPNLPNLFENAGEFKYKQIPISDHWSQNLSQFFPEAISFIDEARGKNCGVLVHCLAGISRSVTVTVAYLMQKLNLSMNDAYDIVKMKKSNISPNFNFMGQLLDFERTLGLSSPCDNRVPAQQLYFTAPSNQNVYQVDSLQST
The assay is described as follows: inhibition of rat DUSP6 enzyme activity – biochemical, in vitro, primary screen (AID 425).
As to `Cc1cc(=O)oc2cc(OCC(=O)N/N=C/C3C=C([N+](=O)[O-])C=CC3=O)ccc12` (stereo unspecified) [MLS000588734], the half-maximal inhibitory concentration (IC50) (commonly the midpoint of a concentration-inhibition curve) turned out to be 24 µM. Consider `CCN(CC)CCCN1C(=O)C(=O)C(C(=O)c2ccccc2)C1c1ccccn1` (stereo unspecified) [(4E)-1-[3-(diethylamino)propyl]-4-[hydroxy(phenyl)methylidene]-5-(2-pyridinyl)pyrrolidine-2,3-dione], for which the IC50 came to 100 µM.

In turn, `COC1=CC=CC(/C=N/NC(=O)c2cc3cc([N+](=O)[O-])ccc3s2)C1=O` (stereo unspecified) [SMR000237814] yielded an IC50 of 116 µM.

Turning to `O=NCc1cccn1-c1cccc(C(=O)O)c1` [3-[2-(hydroximinomethyl)pyrrol-1-yl]benzoic acid], the IC50 was 10 µM. For `CCOc1cc(CN=Nc2nc(O)c(CC(=O)O)s2)ccc1OCc1ccc(Cl)cc1Cl` [2-[2-[(N''E)-N''-[4-(2,4-dichlorobenzyl)oxy-3-ethoxy-benzylidene]hydrazino]-4-keto-2-thiazolin-5-yl]acetic acid], 25.6 µM corresponded to half-maximal inhibition (IC50). In the case of `Cc1ccc(NC(=O)CN2C(=O)C(=NNC(=O)c3cc([N+](=O)[O-])ccc3O)c3ccccc32)cc1`, the midpoint of inhibition, the IC50, lay at 31 µM.

The values above are taken from BindingDB's records for doi:10.7270/Q2W66J6B (Sanford-Burnham Center For Chemical Genomics, 2009).
